Here are results for eleven compounds from ChEMBL document CHEMBL1201862, “PubChem BioAssay data set” (2004).

Some test systems named below: OVCAR-8; Malme-3M; MDA-N; U-251; HCT-15; Hs-578T; A549; SW-620; ACHN; CCRF-CEM; HT-29; HCC 2998; HL-60; HOP-92; M14; SF-268; K562; SN12C; KM12; HOP-62.
Holding throughout (test): growth of human tumour cells (NCI), 48 h

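1) Cells in 96-well plates. 2) Compound, 48 h, 5 concentrations. 3) Linear interpolation between surrounding doses. 4) Unreached endpoint = highest concentration. At the GI50, growth is halved.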 The source made the active and inactive calls. Rule as the data show it: active = GI50 up to about 1.1 µM and inactive = higher. Where only a bound is given, the exact number is not on record here.

Consider `CN(C)CCc1c2c(nc3ccccc13)C(=O)c1cccnc1C2=O`, for which the GI50 in the test with OVCAR-8 was 0.184 µM (active); in the test with Malme-3M, 0.49 µM (active); in the test with MDA-N, 0.352 µM (active); with U-251 it was 0.176 µM (active); with HCT-15 it was 0.0348 µM; with Hs-578T, 1.15 µM (inactive). Moreover, the GI50 is 1.24 µM (inactive) with A549; 0.0873 µM (active) in the test on SW-620; 0.084 µM (active) in the test on ACHN; 0.682 µM (active) with CCRF-CEM; 1.55 µM (inactive) with HT-29; 1.35 µM (inactive) with HCC 2998. Further, the GI50 was 0.0486 µM (active) in the test with HL-60; 1.49 µM (inactive) in the test with HOP-92; 0.102 µM (active) in the test on M14; 0.238 µM (active) in the test on SF-268; 0.154 µM (active) in the test with K562; 0.277 µM (active) in the test with SN12C. The GI50 in the test with KM12 is 0.173 µM (active).

Regarding `Cc1ccc2c(c1C)C(=O)/C(=C/c1cccc(C)c1C(=O)O)C2`, the GI50 in the test with OVCAR-8 was 86.5 µM (inactive); with Malme-3M, 71 µM (inactive); with MDA-N it was > 80.5 µM (inactive); with U-251 it was 79.1 µM (inactive); in the test with HCT-15 it was 51.3 µM; with Hs-578T it was > 86.1 µM (inactive). The GI50 was 79.6 µM (inactive) in the test on A549; 72.3 µM (inactive) in the test with ACHN; 50.7 µM (inactive) in the test with CCRF-CEM; 85.5 µM (inactive) with HT-29; 51.5 µM (inactive) with HCC 2998; 48.6 µM (inactive) in the test on HL-60. Besides, the GI50 in the test on HOP-92 is 19.2 µM (inactive); with M14, 63.2 µM (inactive); with SF-268 it was > 91.4 µM (inactive); in the test on HOP-62, > 55.7 µM (inactive); with K562 it was 72.8 µM (inactive); in the test with SN12C, > 71.4 µM (inactive). The GI50 with KM12 was 47.6 µM (inactive).

As to `CCCCCC(C)C[C@H]1CO[C@H](c2ccc[nH]2)N[C@H]1C(=O)OC` (some centres not stated), the GI50 was > 100 µM (inactive) with OVCAR-8; > 100 µM (inactive) in the test with Malme-3M; > 100 µM (inactive) in the test on MDA-N; > 100 µM (inactive) in the test with U-251; over 100 µM with HCT-15; > 100 µM (inactive) in the test with Hs-578T. Also, the GI50 with A549, with SW-620, with ACHN, in the test on CCRF-CEM, in the test with HT-29 and with HCC 2998 was > 100 µM (inactive) in each case. The GI50 with HL-60 was > 100 µM (inactive); with HOP-92 it was 29.9 µM (inactive); in the test on M14 it was > 100 µM (inactive); in the test on SF-268 it was > 100 µM (inactive); with HOP-62, > 100 µM (inactive); with SN12C it was > 100 µM (inactive). For the same compound, in the test with KM12, the GI50 is > 100 µM (inactive).

For the compound `Cc1oc2c(cc(O)c3ccccc32)c2cccc1-2`, the GI50 was > 100 µM (inactive) with OVCAR-8; > 100 µM (inactive) with Malme-3M; > 100 µM (inactive) with MDA-N; > 100 µM (inactive) with U-251; 99.5 µM with HCT-15; > 100 µM (inactive) in the test on Hs-578T. Besides, the GI50 in the test with A549, in the test on SW-620, in the test on ACHN, in the test on CCRF-CEM, with HT-29 and in the test with HCC 2998 was > 100 µM (inactive) in each case. The GI50 in the test with HL-60 was 96.6 µM (inactive); in the test on HOP-92, > 100 µM (inactive); in the test with M14 it was 24.1 µM (inactive); in the test on SF-268, > 100 µM (inactive); in the test with HOP-62, > 100 µM (inactive); with SN12C, > 100 µM (inactive). In the test with KM12, the GI50 was > 100 µM (inactive).

Consider `COC12CCCN1c1ccn(Cc3ccccc3)c(=O)c1C2=O` (configuration not stated), for which the GI50 is > 100 µM (inactive) in the test with OVCAR-8; > 100 µM (inactive) in the test on Malme-3M; > 100 µM (inactive) with MDA-N; > 100 µM (inactive) with U-251; over 100 µM with HCT-15; > 100 µM (inactive) in the test with Hs-578T. In addition, the GI50 in the test on A549 is > 100 µM (inactive); in the test on SW-620, > 100 µM (inactive); in the test with ACHN, > 100 µM (inactive); in the test with CCRF-CEM, 82 µM (inactive); in the test with HT-29, > 100 µM (inactive); in the test with HCC 2998 it was > 100 µM (inactive). Also, the GI50 is 66.1 µM (inactive) with HL-60; > 100 µM (inactive) in the test on HOP-92; > 100 µM (inactive) in the test with M14; > 100 µM (inactive) with SF-268; > 100 µM (inactive) in the test on K562; > 100 µM (inactive) in the test on SN12C. Moreover, the GI50 with KM12 is > 100 µM (inactive).

In the case of `COC1C(=O)N(SC)C1c1ccccc1Cl` (configuration not stated), the GI50 with OVCAR-8 is 19.6 µM (inactive); in the test on Malme-3M it was 22.6 µM (inactive); in the test on MDA-N, 34.6 µM (inactive); with U-251 it was 52.4 µM (inactive); with HCT-15, 22.3 µM; in the test on Hs-578T it was > 100 µM (inactive). Besides, the GI50 in the test on A549 is > 100 µM (inactive); with SW-620 it was 21.4 µM (inactive); with ACHN it was 18.8 µM (inactive); in the test with CCRF-CEM, 14.6 µM (inactive); with HT-29, 20.3 µM (inactive); in the test with HCC 2998 it was 14.7 µM (inactive). Moreover, the GI50 was 16.7 µM (inactive) in the test on HL-60; 36.1 µM (inactive) in the test with HOP-92; 28.1 µM (inactive) in the test on M14; > 100 µM (inactive) in the test on SF-268; > 100 µM (inactive) with HOP-62; 25.9 µM (inactive) with K562. In addition, the GI50 in the test with SN12C is 22.8 µM (inactive); in the test on KM12 it was > 100 µM (inactive).

On to `COc1ccc(/C=C2\CN(C)C/C(=C\c3ccc(OC)c(OC)c3OC)C2=O)c(OC)c1OC`, for which the GI50 in the test on OVCAR-8 was 0.07 µM (active); in the test on Malme-3M, 0.171 µM (active); with MDA-N, 0.0968 µM (active); in the test with U-251, 0.0333 µM (active); with HCT-15 it was 0.369 µM; in the test on Hs-578T it was 0.303 µM (active). Moreover, the GI50 in the test on A549 was 0.294 µM (active); in the test with SW-620 it was 0.155 µM (active); in the test on ACHN, 0.218 µM (active); in the test with CCRF-CEM, 0.019 µM (active); in the test with HT-29 it was 0.171 µM (active); in the test with HCC 2998, 0.171 µM (active). For the same compound, the GI50 was 0.0191 µM (active) in the test on HL-60; 0.617 µM (active) in the test on HOP-92; 0.073 µM (active) in the test with M14; 0.164 µM (active) in the test on SF-268; 0.294 µM (active) in the test on HOP-62; 0.0192 µM (active) in the test on K562. Also, the GI50 is 0.101 µM (active) in the test on SN12C and 0.0859 µM (active) in the test on KM12.

Turning to `CC(C)[C@@H]1CC[C@@H](C)C[C@H]1OC(=O)/C=C1\C(C(=O)O[C@@H]2C[C@H](C)CC[C@H]2C(C)C)[C@H]2C=C[C@@H]1O2` (some centres not stated), the GI50 in the test on OVCAR-8 is 57.7 µM (inactive); with Malme-3M, > 100 µM (inactive); in the test on MDA-N, 83.6 µM (inactive); with U-251, 51.4 µM (inactive); in the test on HCT-15, 92.3 µM; in the test with Hs-578T, 72.3 µM (inactive). Moreover, the GI50 was 80.2 µM (inactive) in the test with A549; 29.9 µM (inactive) in the test with SW-620; 27.1 µM (inactive) in the test on ACHN; 23.4 µM (inactive) with CCRF-CEM; 33.4 µM (inactive) in the test on HT-29; 29.1 µM (inactive) with HCC 2998. The GI50 was 22.9 µM (inactive) in the test with HL-60; 63 µM (inactive) in the test with HOP-92; 89.5 µM (inactive) in the test on M14; 76.4 µM (inactive) in the test on SF-268; > 100 µM (inactive) in the test with HOP-62; 33.4 µM (inactive) with K562. Also, the GI50 in the test with SN12C is 57.8 µM (inactive); with KM12 it was 87.7 µM (inactive).

As for `COc1cc(Nc2ccc3c(c2)CCC3)nc(OC)n1`, the GI50 in the test on OVCAR-8 was 34.8 µM (inactive); in the test with Malme-3M, 32.1 µM (inactive); with MDA-N, 26.1 µM (inactive); with U-251, > 100 µM (inactive); in the test on HCT-15 it was 27.8 µM; in the test with Hs-578T, 6.58 µM (inactive). Besides, the GI50 with A549 is 26.5 µM (inactive); with SW-620, > 100 µM (inactive); with ACHN, 28.2 µM (inactive); in the test on CCRF-CEM, 49.7 µM (inactive); with HT-29 it was 19.9 µM (inactive); with HCC 2998, 29.7 µM (inactive). Further, the GI50 is 29.6 µM (inactive) in the test with HL-60; 32.4 µM (inactive) in the test on HOP-92; 43.3 µM (inactive) with M14; 23.9 µM (inactive) in the test on SF-268; 54.6 µM (inactive) with HOP-62; 30.2 µM (inactive) in the test on SN12C. For the same compound, the GI50 in the test on KM12 was 27.9 µM (inactive).

For `O=C1NC(N2CCOCC2)=N/C1=C\c1ccc(Cl)cc1`, the GI50 in the test on OVCAR-8 is > 100 µM (inactive); with Malme-3M, > 100 µM (inactive); in the test with MDA-N, > 100 µM (inactive); with U-251, > 100 µM (inactive); in the test on HCT-15 it was over 100 µM; with Hs-578T, > 100 µM (inactive). The GI50 with A549, in the test with SW-620, with ACHN, with CCRF-CEM, in the test on HT-29 and with HCC 2998 was > 100 µM (inactive) in each case. For the same compound, the GI50 in the test on HL-60, in the test on HOP-92, in the test on M14, with SF-268, in the test with HOP-62 and in the test on SN12C was > 100 µM (inactive) throughout. In addition, the GI50 in the test with KM12 is > 100 µM (inactive).

On to `O=C(/C=C/c1ccccc1)Oc1ccc(C(=O)/C=C/c2ccccc2)cc1`, for which the GI50 with OVCAR-8 is 10.2 µM (inactive); with Malme-3M, > 10 µM (inactive); in the test with MDA-N, 6.3 µM (inactive); in the test with HCT-15, 4.29 µM; in the test on Hs-578T, 23.3 µM (inactive); in the test on A549, 25.1 µM (inactive). In addition, the GI50 was 8.75 µM (inactive) with SW-620; 11.9 µM (inactive) in the test on ACHN; 3.3 µM (inactive) in the test with CCRF-CEM; 12.1 µM (inactive) in the test on HT-29; 8.47 µM (inactive) in the test on HCC 2998; 2.84 µM (inactive) with HL-60. In addition, the GI50 in the test with HOP-92 is 17.1 µM (inactive); in the test with M14 it was 14.1 µM (inactive); in the test on SF-268 it was 12.3 µM (inactive); with HOP-62, 12.9 µM (inactive); in the test on K562, 3.4 µM (inactive); with SN12C it was 10.3 µM (inactive). In addition, the GI50 in the test with KM12 was 5.4 µM (inactive).
